Assay results reported in ChEMBL document CHEMBL4219122, “Synthesis and biological evaluation of histone deacetylase and DNA topoisomerase II-Targeted inhibitors” (Bioorg Med Chem, 2018).
pIC50: −log10 of the molar value. Activity calls are given as the source filed them. The calls are words filed in the database; no cut-off is given here.

What was measured:
[1] = tested on: HCT-116; assay: Growth inhibition of human HCT116 cells after 48 hrs by sulforhodamine B-based colorimetric assay; type: functional, cell-based; conditions: HCT-116, 48 h
[2] = tested on: MKN-74; assay: Growth inhibition of human MKN74 cells after 48 hrs by sulforhodamine B-based colorimetric assay; type: functional; conditions: MKN-74, 48 h
[3] = tested on: OVCAR-3; assay: Growth inhibition of human OVCAR3 cells after 48 hrs by sulforhodamine B-based colorimetric assay; type: functional; conditions: OVCAR-3, 48 h
[4] = tested on: HCT-15; assay: Growth inhibition of human HCT15 cells after 48 hrs by sulforhodamine B-based colorimetric assay; type: functional; conditions: HCT-15, 48 h
[5] = tested on: OVCAR-8; assay: Growth inhibition of human OVCAR8 cells after 48 hrs by sulforhodamine B-based colorimetric assay; type: functional; conditions: OVCAR-8, 48 h
[6] = tested on: MKN-28; assay: Growth inhibition of human MKN28 cells after 48 hrs by sulforhodamine B-based colorimetric assay; type: functional; conditions: MKN-28, 48 h
[7] = tested on: MCF7; assay: Growth inhibition of human MCF7 cells after 48 hrs by sulforhodamine B-based colorimetric assay; type: functional, cell-based; conditions: MCF7, 48 h
[8] = tested on: MKN-7; assay: Growth inhibition of human MKN7 cells after 48 hrs by sulforhodamine B-based colorimetric assay; type: functional; conditions: MKN-7, 48 h
[9] = molecular target: T1, DNA topoisomerase 2-alpha (Homo sapiens, UniProt P11388); assay: Inhibition of human topoisomerase-2 alpha-mediated kinetoplast DNA decatenation at 100 to 400 uM after 30 mins by ethidium bromide staining based agarose gel electrophoresis
T1 sequence (P11388 whole entry): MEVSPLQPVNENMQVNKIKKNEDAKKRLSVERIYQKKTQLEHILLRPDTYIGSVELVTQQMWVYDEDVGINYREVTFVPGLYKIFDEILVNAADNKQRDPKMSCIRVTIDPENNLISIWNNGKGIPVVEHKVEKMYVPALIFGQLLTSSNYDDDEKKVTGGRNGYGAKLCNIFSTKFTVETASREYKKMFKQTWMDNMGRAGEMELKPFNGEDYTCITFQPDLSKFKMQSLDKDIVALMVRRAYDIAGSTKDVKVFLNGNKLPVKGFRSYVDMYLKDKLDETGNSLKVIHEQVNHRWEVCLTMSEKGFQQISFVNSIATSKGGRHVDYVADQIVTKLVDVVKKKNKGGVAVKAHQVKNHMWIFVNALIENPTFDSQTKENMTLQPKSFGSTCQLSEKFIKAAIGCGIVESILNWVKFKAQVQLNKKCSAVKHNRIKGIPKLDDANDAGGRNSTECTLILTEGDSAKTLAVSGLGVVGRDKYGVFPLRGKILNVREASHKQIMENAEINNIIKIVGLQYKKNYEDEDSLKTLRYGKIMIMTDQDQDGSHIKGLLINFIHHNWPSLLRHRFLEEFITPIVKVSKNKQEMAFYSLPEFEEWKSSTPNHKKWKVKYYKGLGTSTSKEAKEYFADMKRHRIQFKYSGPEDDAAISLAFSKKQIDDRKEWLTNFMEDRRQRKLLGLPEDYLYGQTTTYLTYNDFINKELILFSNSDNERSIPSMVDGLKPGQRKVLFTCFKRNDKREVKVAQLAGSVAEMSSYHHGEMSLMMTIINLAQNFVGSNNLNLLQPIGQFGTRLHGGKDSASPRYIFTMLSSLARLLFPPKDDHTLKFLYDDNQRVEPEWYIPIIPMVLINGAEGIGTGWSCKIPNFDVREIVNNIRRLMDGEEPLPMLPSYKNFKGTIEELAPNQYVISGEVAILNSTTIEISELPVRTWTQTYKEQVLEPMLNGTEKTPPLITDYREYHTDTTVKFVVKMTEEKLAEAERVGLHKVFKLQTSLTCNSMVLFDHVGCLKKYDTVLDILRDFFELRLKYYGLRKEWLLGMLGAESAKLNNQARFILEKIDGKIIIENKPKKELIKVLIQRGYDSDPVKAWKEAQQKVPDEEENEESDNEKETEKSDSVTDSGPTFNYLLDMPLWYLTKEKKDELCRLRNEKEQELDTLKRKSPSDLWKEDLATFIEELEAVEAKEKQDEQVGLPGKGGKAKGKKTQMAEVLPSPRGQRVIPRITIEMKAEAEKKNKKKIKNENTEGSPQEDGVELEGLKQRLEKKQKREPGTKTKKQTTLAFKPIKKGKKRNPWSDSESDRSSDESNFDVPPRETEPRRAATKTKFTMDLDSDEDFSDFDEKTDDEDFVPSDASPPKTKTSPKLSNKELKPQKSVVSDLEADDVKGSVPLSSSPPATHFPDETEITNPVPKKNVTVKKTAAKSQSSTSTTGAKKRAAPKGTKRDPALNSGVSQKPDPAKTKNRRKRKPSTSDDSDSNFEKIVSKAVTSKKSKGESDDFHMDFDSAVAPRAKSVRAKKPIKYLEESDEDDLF

[10] = tested on: SF-295; assay: Growth inhibition of human SF295 cells after 48 hrs by sulforhodamine B-based colorimetric assay; type: functional; conditions: SF-295, 48 h
[11] = tested on: NCI-H226; assay: Growth inhibition of human NCI-H226 cells after 48 hrs by sulforhodamine B-based colorimetric assay; type: functional; conditions: NCI-H226, 48 h
[12] = tested on: DU-145; assay: Growth inhibition of human DU145 cells after 48 hrs by sulforhodamine B-based colorimetric assay; type: functional, cell-based; conditions: DU-145, 48 h
[13] = tested on: OVCAR-5; assay: Growth inhibition of human OVCAR5 cells after 48 hrs by sulforhodamine B-based colorimetric assay; type: functional; conditions: OVCAR-5, 48 h
[14] = tested on: MKN-45; assay: Growth inhibition of human MKN45 cells after 48 hrs by sulforhodamine B-based colorimetric assay; type: functional; conditions: MKN-45, 48 h
[15] = tested on: ACHN; assay: Growth inhibition of human ACHN cells after 48 hrs by sulforhodamine B-based colorimetric assay; type: functional
[16] = tested on: SF-268; assay: Growth inhibition of human SF268 cells after 48 hrs by sulforhodamine B-based colorimetric assay; type: functional; conditions: SF-268, 48 h
[17] = Growth inhibition of human HBC5 cells after 48 hrs by sulforhodamine B-based colorimetric assay; type: functional; conditions: HBC5, 48 h
[18] = tested on: LOX IMVI; assay: Growth inhibition of human LOXIMVI cells after 48 hrs by sulforhodamine B-based colorimetric assay; type: functional
[19] = molecular target: T1, DNA topoisomerase 2-alpha; assay: Inhibition of human topoisomerase-2 alpha-mediated kinetoplast DNA decatenation at 200 uM after 30 mins by ethidium bromide staining based agarose gel electrophoresis
[20] = molecular target: Histone deacetylase 1 (Homo sapiens, UniProt Q13547); assay: Inhibition of recombinant human HDAC1 expressed in HEK293T cells using Ac-KGLGK(Ac)-MCA as substrate after 30 mins in presence of DTT by fluorescence assay
Histone deacetylase 1, sequence (Q13547 whole entry): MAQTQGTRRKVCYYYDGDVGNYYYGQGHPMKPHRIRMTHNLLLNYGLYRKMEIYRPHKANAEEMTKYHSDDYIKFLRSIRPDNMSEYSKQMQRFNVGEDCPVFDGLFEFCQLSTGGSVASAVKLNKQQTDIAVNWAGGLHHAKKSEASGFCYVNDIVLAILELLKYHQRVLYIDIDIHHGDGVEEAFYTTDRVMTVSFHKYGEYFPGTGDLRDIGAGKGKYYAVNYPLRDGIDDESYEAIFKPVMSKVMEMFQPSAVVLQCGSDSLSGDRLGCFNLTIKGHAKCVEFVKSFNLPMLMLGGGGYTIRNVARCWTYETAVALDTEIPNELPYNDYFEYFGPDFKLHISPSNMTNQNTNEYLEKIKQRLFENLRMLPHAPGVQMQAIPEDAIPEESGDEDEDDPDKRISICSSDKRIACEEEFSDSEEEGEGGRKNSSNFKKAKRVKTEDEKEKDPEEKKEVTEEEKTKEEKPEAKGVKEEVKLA

[21] = tested on: KM12; assay: Growth inhibition of human KM12 cells after 48 hrs by sulforhodamine B-based colorimetric assay; type: functional; conditions: KM12, 48 h
[22] = tested on: SF-539; assay: Growth inhibition of human SF539 cells after 48 hrs by sulforhodamine B-based colorimetric assay; type: functional; conditions: SF-539, 48 h
[23] = tested on: SK-OV-3; assay: Growth inhibition of human SKOV3 cells after 48 hrs by sulforhodamine B-based colorimetric assay; type: functional; conditions: SK-OV-3, 48 h
[24] = tested on: OVCAR-4; assay: Growth inhibition of human OVCAR4 cells after 48 hrs by sulforhodamine B-based colorimetric assay; type: functional; conditions: OVCAR-4, 48 h
[25] = tested on: PC-3; assay: Growth inhibition of human PC3 cells after 48 hrs by sulforhodamine B-based colorimetric assay; type: functional; conditions: PC-3, 48 h
[26] = tested on: HT-29; assay: Growth inhibition of human HT-29 cells after 48 hrs by sulforhodamine B-based colorimetric assay; type: functional; conditions: HT-29, 48 h
[27] = tested on: NCI-H522; assay: Growth inhibition of human NCI-H522 cells after 48 hrs by sulforhodamine B-based colorimetric assay; type: functional; conditions: NCI-H522, 48 h
[28] = tested on: NCI-H23; assay: Growth inhibition of human NCI-H23 cells after 48 hrs by sulforhodamine B-based colorimetric assay; type: functional; conditions: NCI-H23, 48 h
[29] = tested on: DMS-114; assay: Growth inhibition of human DMS114 cells after 48 hrs by sulforhodamine B-based colorimetric assay; type: functional; conditions: DMS-114, 48 h
[30] = tested on: U-251; assay: Growth inhibition of human U251 cells after 48 hrs by sulforhodamine B-based colorimetric assay; type: functional; conditions: U-251, 48 h
[31] = tested on: A549; assay: Growth inhibition of human A549 cells after 48 hrs by sulforhodamine B-based colorimetric assay; type: functional; conditions: A549, 48 h

Row | Compound | GI50 ([1]; read-out: GI50) [µM] | GI50 ([1]; read-out: pGI50 (converted)) [µM] | GI50 [2] [µM] | GI50 [3] [µM] | GI50 [4] [µM] | GI50 [5] [µM] | GI50 [6] [µM] | GI50 ([7]; read-out: GI50) [µM] | GI50 ([7]; read-out: pGI50 (converted)) [µM] | GI50 [8] [µM] | inhibition [9] | GI50 [10] [µM] | GI50 [11] [µM] | GI50 ([12]; read-out: GI50) [µM] | GI50 ([12]; read-out: pGI50 (converted)) [µM] | GI50 [13] [µM] | GI50 [14] [µM] | GI50 [15] [µM] | GI50 [16] [µM] | GI50 [17] [µM] | other results
1 | Cc1cn([C@@H]2C[C@H](C3(c4ccc(NC(=O)CCCCCCC(=O)NO)cc4)SCCCS3)[C@@H](CO[Si](C)(C)C(C)(C)C)O2)c(=O)[nH]c1=O | 4.17 | 4.17 | 5.75 | 3.02 | 15.5 | 4.27 | 4.27 | 3.89 | 3.89 | 3.47 | Active | 6.92 | 10.2 | 3.98 | 3.98 | 6.61 | 10 | 9.33 | 6.03 | 6.31 | GI50 [18]: 2.14 µM; inhibition [19]: Active; pIC50 [20]: 5.96; GI50 [21]: 6.76 µM; GI50 [22]: 4.57 µM; GI50 [23]: 12.9 µM; GI50 [24]: 3.98 µM; GI50 [25]: 4.57 µM; GI50 [26]: 7.08 µM; GI50 [27]: 2.69 µM; GI50 [28]: 7.94 µM; GI50 [29]: 3.55 µM; GI50 [30]: 5.13 µM; GI50 [31]: 8.51 µM
2 | Cc1cn([C@H]2C[C@H](C3(c4ccc(NC(=O)CCCCCCC(=O)NO)cc4)SCCCS3)[C@@H](CO[Si](C)(C)C(C)(C)C)O2)c(=O)[nH]c1=O | 3.39 | 3.39 | 4.47 | 2.95 | 3.55 | 3.55 | 3.72 | 3.24 | 3.24 | 2.95 | Active | 4.9 | 3.89 | 3.98 | 3.98 | 4.9 | 3.8 | 4.37 | 4.37 | 6.46 | GI50 [18]: 1.78 µM; inhibition [19]: Active; pIC50 [20]: 6.14; GI50 [21]: 4.57 µM; GI50 [22]: 3.39 µM; GI50 [23]: 4.07 µM; GI50 [24]: 3.24 µM; GI50 [25]: 4.37 µM; GI50 [26]: 3.63 µM; GI50 [27]: 2.69 µM; GI50 [28]: 4.68 µM; GI50 [29]: 3.09 µM; GI50 [30]: 3.98 µM; GI50 [31]: 5.01 µM
